Tests used:
Assay type in all cases: in vivo
[1] = system: Erysiphe graminis f.sp. hordei; experiment: Erysiphe graminis f.sp. hordei, powdery mildew of barley, curative test on barley leaf segments; conditions: Blumeria graminis, foliar, 168 h; application rate 200 ppm; barley leaf segments sprayed 24 h after inoculation; assessed 7 days after inoculation; 0=no control, 100%=complete control; read-out: curative fungicidal activity, percent efficacy relative to untreated infected control
Experimental: Erysiphe graminis f.sp. hordei: Powdery Mildew of Barley, Curative Test Erysiphe graminis f.sp. hordei (Barley powdery mildew): Barley leaf segments are placed on agar in multiwell plates (24-well format). The leaf disks are inoculated with spores of the fungus (120 conidia/mm2). After 24 h the leaf disks are sprayed with the formulated (2% Dimethylsulfoxid, 0,025% Tween 20) test solutions. After appropriate incubation, the curative fungicidal activity of a compound is assessed 7 days after inoculation as disease damage on the leaf disks and calculated as percent efficacy relative to untreated infected control (0=no control of Erysiphe graminis f.sp. hordei, 100%=complete control). In this test, compounds listed in Table P above show good activity.

Plasmopara viticola = experiment: Plasmopara viticola, downy mildew of grapevine, preventative test on grape vine leaf disks; conditions: application rate 200 ppm, assessed 6 days after inoculation, 0=no control, 100%=complete control
Experimental: (§1) Plasmopara viticola: Downy Mildew of Grapevine, Preventative Test Plasmopara viticola (downy mildew of grapevine): Grape vine leaf disks are placed on agar in multiwell plates (24-well format) and sprayed with the formulated (2% Dimethylsulfoxid, 0,025% Tween 20) test solutions. After drying, the leaf disks are inoculated with a spore suspension of the fungus (80′000 conidia/ml). After appropriate incubation, the preventive fungicidal activity of a compound is assessed 6 days after inoculation as disease damage on the leaf disks and calculated as percent efficacy relative to untreated infected control. (0=no control of Plasmopara viticola, 100%=complete control). In this test, compounds listed in Table P above show good activity.

Puccinia recondita [2] = experiment: Puccinia recondita, brown rust of wheat, preventative test on wheat leaf segments; conditions: foliar, 192 h, application rate 200 ppm, assessed 8 days after inoculation, 0=no control, 100%=complete control, read-out: preventive fungicidal activity, percent efficacy relative to untreated infected control
Experimental: (§2) Puccinia recondite: Brown Rust of Wheat, Preventative Test Puccinia recondita (Brown rust): Wheat leaf segments are placed on agar in multiwell plates (24-well format) and sprayed with the formulated (2% Dimethylsulfoxid, 0,025% Tween 20) test solutions. After drying, the leaf disks are inoculated with a spore suspension of the fungus (45'000 conidia/ml). After appropriate incubation, the preventive fungicidal activity of a compound is assessed 8 days after inoculation as disease damage on the leaf disks and calculated as percent efficacy relative to untreated infected control (0=no control of Puccinia recondita, 100%=complete control). In this test, compounds listed in Table P above show good activity.

[3] = system: Erysiphe graminis f.sp. tritici; experiment: Erysiphe graminis f.sp. tritici, wheat powdery mildew, preventative test on wheat leaf segments; conditions: Blumeria graminis, foliar, 168 h, application rate 200 ppm, assessed 7 days after inoculation, 0=no control, 100%=complete control, read-out: preventive fungicidal activity, percent efficacy relative to untreated infected control
Experimental: Erysiphe graminis f.sp. tritici: Wheat Powdery Mildew, Preventative Test Erysiphe graminis f.sp. tritici (Wheat powdery mildew): Wheat leaf segments are placed on agar in multiwell plates (24-well format) and sprayed with the formulated (2% Dimethylsulfoxid, 0,025% Tween 20) test solutions. After drying, the leaf disks are inoculated with spores of the fungus (50 conidia/mm2). After appropriate incubation, the preventive fungicidal activity of a compound is assessed 7 days after inoculation as disease damage on the leaf disks and calculated as percent efficacy relative to untreated infected control. (0=no control of Erysiphe graminis f.sp. tritici, 100%=complete control). In this test, compounds listed in Table P above show good activity.

Botrytis cinerea = experiment: Botrytis cinerea, gray mould, preventative test on bean leaf disks; conditions: application rate 200 ppm, assessed 3 days after inoculation, 0=no control, 100%=complete control
Experimental: as §1, with “Botrytis cinerea: Gray Mould,” for “Plasmopara viticola: Downy Mildew of Grapevine,”, “Botrytis cinerea (Gray mould): Bean” for “Plasmopara viticola (downy mildew of grapevine): Grape vine”, “(60′000” for “(80′000”, “3” for “6”, “Botrytis cinerea,” for “Plasmopara viticola,”

Puccinia recondita [4] = experiment: Puccinia recondita, brown rust of wheat, curative test on wheat leaf segments; conditions: foliar, 192 h, application rate 200 ppm, wheat leaf segments treated one day after inoculation, assessed 8 days after inoculation, 0=no control, 100%=complete control, read-out: curative fungicidal activity, percent efficacy relative to untreated infected control
Pyrenophora teres = experiment: Pyrenophora teres, net blotch of barley, preventative test on barley leaf segments; conditions: foliar, 96 h, application rate 200 ppm, assessed 4 days after inoculation, 0=no control, 100%=complete control, read-out: preventive fungicidal activity, percent efficacy relative to untreated infected control
Experimental: as §2, with “Pyrenophora teres: Net Blotch” for “Puccinia recondite: Brown Rust”, “Barley,” for “Wheat,”, “Method Description Pyrenophora teres (Net blotch): Barley” for “Puccinia recondita (Brown rust): Wheat”, “(25'000” for “(45'000”, “4” for “8”, “Pyrenophora teres,” for “Puccinia recondita,”

SMILES	pest or weed control at 200 ppm (Puccinia recondita [2]) [%]	pest or weed control at 200 ppm [3] [%]	pest or weed control at 200 ppm (Puccinia recondita [4]) [%]	other results
CN(C)/C=N/c1ccc(Oc2ccc(Cl)cc2Cl)nc1 [P.03]				pest or weed control at 200 ppm [1]: ≥ 50%
C#CC(C)N(C)/C=N/c1cnc(Oc2ccc(Cl)c(C(F)(F)F)c2)c(C)c1 (stereo not drawn) [P.10]				preventive fungicidal activity, percent efficacy relative to untreated infected control (Plasmopara viticola): at least 50%
CCN(C)/C=N/c1cc(Br)c(Oc2ccc(Cl)c(C(F)(F)F)c2)nc1C [P.29]	≥ 50	≥ 50	≥ 50	preventive fungicidal activity, percent efficacy relative to untreated infected control (Botrytis cinerea): at least 50%
CCN(C)/C=N/c1ccc(Oc2ccc(Cl)c(C(F)(F)F)c2)nc1C [P.07]	≥ 50	≥ 50		pest or weed control at 200 ppm [1]: ≥ 50%
CCN(C)/C=N/c1cc(Cl)c(OCCCC(C)C)nc1C [P.46]				pest or weed control at 200 ppm (Pyrenophora teres): ≥ 50%
CCN(C)/C=N/c1ccc(Oc2ccc(Cl)cc2Cl)nc1 [P.01]				pest or weed control at 200 ppm [1]: ≥ 50%
Cc1cc(Oc2ccc(Cl)c(C(F)(F)F)c2)ncc1/N=C/N(C)C [P.06]				pest or weed control at 200 ppm [1]: ≥ 50%
Cc1nc(OCCCC(C)C)c(Br)cc1NC(=S)N(C)C(C)C [P.35]	≥ 50	≥ 50	≥ 50	
CCN(C)/C=N/c1cc(Br)c(OCCCC(C)C)nc1OC [P.61]	≥ 50	≥ 50	≥ 50	
CCN(C)/C=N/c1cc(Br)c(Oc2ccc3ccccc3c2)nc1C [P.77]	≥ 50	≥ 50	≥ 50	
CCN(C)/C=N/c1cc(Br)c(OC2CCc3cc(OC)ccc3C2)nc1C (stereo not drawn) [P.82]	≥ 50	≥ 50	≥ 50	
Cc1cc(/N=C/N(C)C)cnc1Oc1cccc(C(C)(C)C)c1 [P.14]				pest or weed control at 200 ppm [1]: ≥ 50%
CCN(C)/C=N/c1cc(C#N)c(Oc2cc(F)cc(F)c2)nc1C [P.41]			≥ 50	
CCN(C)/C=N/c1cc(Cl)c(OCCCC(C)C)nc1C#N [P.81]			≥ 50	
CCN(C)/C=N/c1cnc(Oc2ccc(Cl)c(C(F)(F)F)c2)c(C)c1 [P.19]				pest or weed control at 200 ppm [1]: ≥ 50%
CCN(C)/C=N/c1cc(Cl)c(OCCCC(C)C)nc1Br [P.64]	≥ 50	≥ 50	≥ 50	pest or weed control at 200 ppm (Pyrenophora teres): ≥ 50%
CCN/C=N/c1cnc(Oc2ccc(Cl)c(C(F)(F)F)c2)c(C)c1 [P.08]				pest or weed control at 200 ppm [1]: ≥ 50%; pest or weed control at 200 ppm (Pyrenophora teres): ≥ 50%
CCN(C)/C=N/c1ccc(OCCCC(C)C)nc1OC [P.58]	≥ 50		≥ 50	
CCN(C)/C=N/c1cnc(Oc2ccc(Cl)c(C(F)(F)F)c2)cc1C [P.11]	≥ 50			pest or weed control at 200 ppm [1]: ≥ 50%
CCN(C)/C=N/c1cc(OC)c(OCCCC(C)C)nc1Br [P.70]	≥ 50		≥ 50	
CCN(C)/C=N/c1cc(Cl)c(OCCCC(C)C)nc1OC [P.59]	≥ 50	≥ 50	≥ 50	
CCN(C)/C=N/c1cc(C#C[Si](C)(C)C)c(Oc2ccc(Cl)c(C(F)(F)F)c2)nc1C [P.31]	≥ 50		≥ 50	

SMILES	pest or weed control at 200 ppm (Puccinia recondita [2]) [%]	pest or weed control at 200 ppm [3] [%]	pest or weed control at 200 ppm (Puccinia recondita [4]) [%]	other results
CCN(C)/C=N/c1cc(Br)c(Oc2cccc3ccccc23)nc1C [P.76]	≥ 50	≥ 50	≥ 50	
CCN(C)/C=N/c1cnc(Oc2cccc(C(F)(F)F)c2)c(Br)c1C [P.51]	≥ 50			
CCN(C)/C=N/c1cc(Br)c(Oc2ccc3ncc(Br)cc3c2)nc1C [P.78]		≥ 50		
CCN(C)/C=N/c1cnc(Oc2cccc(C(F)(F)F)c2)cc1C [P.36]			≥ 50	
CN(C)/C=N/c1ccc(Oc2ccc(Cl)cc2)nc1 [P.22]		≥ 50		
C#CC(C)N(C)/C=N/c1ccc(Oc2ccc(Cl)cc2Cl)nc1 (stereo not drawn) [P.04]				pest or weed control at 200 ppm [1]: ≥ 50%
CCN(C)/C=N/c1ccc(OCCCC(C)C)nc1C [P.28]	≥ 50	≥ 50	≥ 50	
CCN(C)/C=N/c1cc(OC)c(Oc2ccc(Cl)c(C(F)(F)F)c2)nc1Br [P.68]		≥ 50		
CCN(C)/C=N/c1cc(Br)c(OCCCC(C)C)nc1Br [P.69]		≥ 50	≥ 50	pest or weed control at 200 ppm (Pyrenophora teres): ≥ 50%
CCN(C)/C=N/c1cc(OC)c(Oc2ccc(Cl)c(C(F)(F)F)c2)nc1Cl [P.63]		≥ 50		
CN(C)/C=N/c1ccc(Oc2ncc(C(F)(F)F)cc2Cl)nc1 [P.15]				pest or weed control at 200 ppm [1]: ≥ 50%
CCN(C)/C=N/c1cc(Br)c(OCCCC(C)C)nc1C [P.26]	≥ 50	≥ 50	≥ 50	
CCN(C)/C=N/c1cc(-c2ccc(F)cc2)c(Oc2ccc(Cl)c(C(F)(F)F)c2)nc1C [P.30]		≥ 50		
CCN(C)/C=N/c1cc(Br)c(OC2CCc3ccccc3C2)nc1C (stereo not drawn) [P.62]	≥ 50	≥ 50	≥ 50	pest or weed control at 200 ppm (Pyrenophora teres): ≥ 50%
CCN(C)/C=N/c1cnc(Oc2cccc(C(C)(C)C)c2)c(C)c1 [P.17]				pest or weed control at 200 ppm [1]: ≥ 50%
CCN(C)/C=N/c1cc(OC)c(OCCCC(C)C)nc1Cl [P.73]	≥ 50	≥ 50	≥ 50	pest or weed control at 200 ppm (Pyrenophora teres): ≥ 50%
Cc1cc(/N=C/N(C)C)cnc1Oc1ccc(Cl)c(C(F)(F)F)c1 [P.09]		≥ 50		pest or weed control at 200 ppm (Pyrenophora teres): ≥ 50%
Cc1cc(/N=C/N(C)c2ccccn2)cnc1Oc1ccc(Cl)c(C(F)(F)F)c1 [P.16]				pest or weed control at 200 ppm [1]: ≥ 50%
CC(C)c1cc(Oc2ccc(Cl)c(Cl)c2)nc(C(C)C)c1/N=C/N(C)C [P.05]				pest or weed control at 200 ppm (Pyrenophora teres): ≥ 50%
COc1ccc(Oc2ccc(/N=C/N(C)C)cn2)cc1 [P.21]		≥ 50		
CCN(C)/C=N/c1cc(Br)c(Oc2cc(Cl)c3ncc(Br)cc3c2)nc1C [P.79]	≥ 50			

From patent US8513286B2, “Iminipyridine derivatives and their uses as microbiocides” (Syngenta Crop Protection LLC, priority 2007, dated 2013)
